# Experimental data reported in PubChem BioAssay (NCI).
# Several values for one entry are separate records, joined by “and”; a condition that tells them apart may be missing. Equal values may be shown once.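 All cell lines were grown in 96-well plates and treated with compound for 48 hours. GI50 is the concentration that inhibits growth by half. TGI marks complete inhibition of growth.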
# Tested on: SNB-19 CNS
# Assay: inhibition of tumour cell growth, NCI panel, 48 h
Compound,TGI,GI50
COc1ccc(N2C(=O)C3c4[nH]c5ccc(C)cc5c4C4CCC(C(C)(C)C)CC4C3C2=O)cc1 (stereo not given),62.6 µM,–
CC/C=C\C[C@@H]1C/C=C2/C(=O)C=C[C@H]2C/C=C\CCCC(=O)O1,3.36 µM,1.25 µM
NC(=S)N/N=C/c1ccc(OC(=O)COc2ccc(Cl)cc2)cn1,> 100 µM,20.9 µM
O=C(N/N=C/c1cccc(O)c1O)c1ccccc1,> 100 µM,1.46 µM
c1ccc(C2=NNC3c4ccccc4-c4ccccc4N3C2)cc1 (stereo not given),> 100 µM,–
CN/N=C(/CCN1CCCC1)CC(c1ccccc1)c1c(O)c2ccccc2oc1=O (stereo not given),> 100 µM,–
COc1ccc(OC)c(/C=C/C(=O)N/N=C/c2ccc(Cl)cc2)c1,> 100 µM,0.159 µM
COc1ccc(C(=O)c2cc(C)c(OC)c(C)c2)c(OC)c1N(C(=O)C(Cl)Cl)C(=O)C(Cl)Cl,> 100 µM,0.0492 µM
CCN(CC)c1sc(N(CC)CC)c2c1SSSSS2,12.7 µM,2.64 µM
NC(CC(=O)OCc1ccccc1)C(=O)OCc1ccccc1 (stereo not given),> 100 µM,–

# Tested on: CAKI-1 renal
# Assay: inhibition of tumour cell growth, NCI panel, 48 h
Compound,TGI,GI50
O=C1NC(=O)c2ccc([N+](=O)[O-])c3cccc1c23,39 µM,–
C[N+](C)(C)CC1CCCC(C[N+](C)(C)C)C1=O (stereo not given),1.48 µM,–
CN(C)CCCn1c2c(c3ccccc3c1=O)C(=O)c1ccccc1-2,2.44 µM,0.583 µM
COc1ccc2c(c1)C=C([N+](=O)[O-])C(C1OC(C)(C)OC1C1COC(C)(C)O1)O2 (stereo not given),13.9 µM,–
CN(C)CCNC(=O)c1cccc(C(=O)Nc2ccccc2)c1[N+](=O)[O-],> 100 µM,–
CC(=O)OC1Oc2ccccc2-c2oc(=O)c(-c3cc4ccc(N(C)C)cc4oc3=O)cc21 (stereo not given),> 100 µM,14.9 µM
CCC1(O)C(=O)OCc2c1cc1n(c2=O)Cc2cc3ccc(C=O)cc3nc2-1 (stereo not given),19.2 µM and 8.81 µM,1.99 µM
COc1ccc2c(c1)C(=O)c1c-2n(CCCn2ccnc2)c(=O)c2ccccc12,1.34 µM,0.211 µM
COc1cc2oc(-c3ccc(O)cc3)cc(=O)c2c(OC)c1OC,> 100 µM,–
O=C(CCl)Nc1ccc(Cl)cc1,3.31 µM,1.59 µM
Fc1cc(F)c(COc2cc(Cn3cnc4c(Cl)nc(Cl)nc43)ccc2C23CC4CC(CC(C4)C2)C3)cc1F,22.8 µM,10.4 µM
COc1ccc(N2C(=O)C3c4[nH]c5ccc(C)cc5c4C4CCC(C(C)(C)C)CC4C3C2=O)cc1 (stereo not given),23.7 µM,–
CC/C=C\C[C@@H]1C/C=C2/C(=O)C=C[C@H]2C/C=C\CCCC(=O)O1,1.77 µM,0.42 µM
NC(=S)N/N=C/c1ccc(OC(=O)COc2ccc(Cl)cc2)cn1,97.4 µM,4.3 µM
O=C(N/N=C/c1cccc(O)c1O)c1ccccc1,16.5 µM,0.519 µM
c1ccc(C2=NNC3c4ccccc4-c4ccccc4N3C2)cc1 (stereo not given),> 100 µM,–
CN/N=C(/CCN1CCCC1)CC(c1ccccc1)c1c(O)c2ccccc2oc1=O (stereo not given),> 100 µM,–
COc1ccc(OC)c(/C=C/C(=O)N/N=C/c2ccc(Cl)cc2)c1,> 100 µM,0.0786 µM
COc1ccc(C(=O)c2cc(C)c(OC)c(C)c2)c(OC)c1N(C(=O)C(Cl)Cl)C(=O)C(Cl)Cl,> 100 µM,0.0415 µM
CCN(CC)c1sc(N(CC)CC)c2c1SSSSS2,3.78 µM,1.49 µM
NC(CC(=O)OCc1ccccc1)C(=O)OCc1ccccc1 (stereo not given),> 100 µM,–
CCCCN=C(N)c1ccc(OCCSCCOc2ccc(C(N)=NCCCC)cc2)cc1,> 100 µM,> 100 µM

# Tested on: DU-145 prostate
# Assay: inhibition of tumour cell growth, NCI panel, 48 h
Compound,TGI,GI50
O=C1NC(=O)c2ccc([N+](=O)[O-])c3cccc1c23,> 100 µM,–
C[N+](C)(C)CC1CCCC(C[N+](C)(C)C)C1=O (stereo not given),16.7 µM,–
CN(C)CCCn1c2c(c3ccccc3c1=O)C(=O)c1ccccc1-2,8.54 µM,1.33 µM
COc1ccc2c(c1)C=C([N+](=O)[O-])C(C1OC(C)(C)OC1C1COC(C)(C)O1)O2 (stereo not given),29.5 µM,–
CN(C)CCNC(=O)c1cccc(C(=O)Nc2ccccc2)c1[N+](=O)[O-],> 100 µM,–
CC(=O)OC1Oc2ccccc2-c2oc(=O)c(-c3cc4ccc(N(C)C)cc4oc3=O)cc21 (stereo not given),27.7 µM,12 µM
CCC1(O)C(=O)OCc2c1cc1n(c2=O)Cc2cc3ccc(C=O)cc3nc2-1 (stereo not given),3.21 µM and 24.3 µM,–
COc1ccc2c(c1)C(=O)c1c-2n(CCCn2ccnc2)c(=O)c2ccccc12,4.66 µM,0.247 µM
COc1cc2oc(-c3ccc(O)cc3)cc(=O)c2c(OC)c1OC,> 100 µM,–
O=C(CCl)Nc1ccc(Cl)cc1,17.4 µM,4.92 µM
Fc1cc(F)c(COc2cc(Cn3cnc4c(Cl)nc(Cl)nc43)ccc2C23CC4CC(CC(C4)C2)C3)cc1F,30.8 µM,17.1 µM
COc1ccc(N2C(=O)C3c4[nH]c5ccc(C)cc5c4C4CCC(C(C)(C)C)CC4C3C2=O)cc1 (stereo not given),> 100 µM,–
CC/C=C\C[C@@H]1C/C=C2/C(=O)C=C[C@H]2C/C=C\CCCC(=O)O1,1.28 µM,0.362 µM
NC(=S)N/N=C/c1ccc(OC(=O)COc2ccc(Cl)cc2)cn1,8.65 µM,2.46 µM
O=C(N/N=C/c1cccc(O)c1O)c1ccccc1,> 100 µM,1.15 µM
c1ccc(C2=NNC3c4ccccc4-c4ccccc4N3C2)cc1 (stereo not given),> 100 µM,–
CN/N=C(/CCN1CCCC1)CC(c1ccccc1)c1c(O)c2ccccc2oc1=O (stereo not given),> 100 µM,–
COc1ccc(OC)c(/C=C/C(=O)N/N=C/c2ccc(Cl)cc2)c1,> 29 µM,0.18 µM
COc1ccc(C(=O)c2cc(C)c(OC)c(C)c2)c(OC)c1N(C(=O)C(Cl)Cl)C(=O)C(Cl)Cl,> 100 µM,0.0392 µM
CCN(CC)c1sc(N(CC)CC)c2c1SSSSS2,3.37 µM,1.8 µM
NC(CC(=O)OCc1ccccc1)C(=O)OCc1ccccc1 (stereo not given),> 100 µM,–
CCCCN=C(N)c1ccc(OCCSCCOc2ccc(C(N)=NCCCC)cc2)cc1,> 100 µM,10.7 µM
